US5849759A, “Naphthyl-substituted benzimidazole derivatives as anti-coagulants” (Berlex Laboratories, Inc., priority 1995, dated 1998)
Where a SMILES comes first, the peptide text is derived from it. [ ]: non-standard residue; d: D form. The star is where a group is joined. pNA = O=[N+]([O-])c1ccc(N*)cc1

Legend:
[1] = target: T1, Human tissue plasminogen activator (tPA) (Two chains, Sigma) (Homo sapiens, UniProt P00750); experiment: In vitro chromogenic assay for tissue plasminogen activator; format: biochemical; conditions: substrate concentration stated equal to Km under present assay conditions; pH 7.5, ambient temperature; read-out: Km (S2288)
T1 construct: purchased Sigma
T1 sequence (P00750 311-562 limits assumed): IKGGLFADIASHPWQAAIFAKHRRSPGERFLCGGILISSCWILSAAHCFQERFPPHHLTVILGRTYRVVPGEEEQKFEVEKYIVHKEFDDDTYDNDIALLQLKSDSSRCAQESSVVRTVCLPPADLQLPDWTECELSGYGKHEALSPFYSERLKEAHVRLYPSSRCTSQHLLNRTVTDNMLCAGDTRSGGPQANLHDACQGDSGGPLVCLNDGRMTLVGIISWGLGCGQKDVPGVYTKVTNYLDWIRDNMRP
T1 sequence (P00750 36-310 partner limits assumed): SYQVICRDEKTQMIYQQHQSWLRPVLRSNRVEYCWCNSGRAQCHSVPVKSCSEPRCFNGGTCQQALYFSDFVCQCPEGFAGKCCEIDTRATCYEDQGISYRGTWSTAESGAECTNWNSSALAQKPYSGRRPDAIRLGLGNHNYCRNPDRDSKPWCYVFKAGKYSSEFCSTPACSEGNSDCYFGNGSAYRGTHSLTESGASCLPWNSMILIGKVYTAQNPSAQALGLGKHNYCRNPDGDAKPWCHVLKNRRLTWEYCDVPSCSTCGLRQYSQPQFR
Procedure: (§1) The activities were determined as an initial rate of cleavage of the peptide p-nitroanilide by the enzyme. The cleavage product, p-nitroaniline, absorbs at 405 nm with a molar extinction coefficient of 9920M^-1 cm^-1.
(§2) 50 mM TrisHCl, 150 mM NaCl, 2.5 mM CaCl2, and 0.1% polyethylene glycol 6000, pH 7.5.
3. Human tissue plasminogen activator (tPA) (Two chains, Sigma) stock solution: 1 mg/mL, stored at -80° C. (working solution (2X): 1361 ng/mL in assay buffer, prepare prior to use).
3. S2288 (tPA assay) stock solution: 10 mM in dH2 O, stored at 4° C. (working solution (4X): 1484 μM in assay buffer). (All substrate working solutions were prepared on assay day […].)
Assays were performed in 96-well microtiter plates in a total volume of 200 μl. […] Concentrations of the standard inhibitor compound in the assay were from 5 μM to 0.021 μM in 1 to 3 dilution. Concentration of the test compounds in the assay typically were from 10 μM to 0.041 μM in 1 to 3 dilution. […]
(§3) The enzyme kinetics were measured at 405 nm, at 10 seconds interval, for five minutes in a THERMOmax plate reader at ambient temperature.
(§4) Enzyme rates were calculated as mOD/min based on the first two minutes readings. The IC50 values were determined by fitting the data to the log-logit equation (linear) or the Morrison equation (non-linear) with an EXCEL spread-sheet. […]

[2] = target: T2, Human thrombin (factor IIa) (Homo sapiens, UniProt P00734); experiment: In vitro chromogenic assay for thrombin; format: biochemical; conditions: substrate concentration stated equal to Km under present assay conditions; pH 7.5, ambient temperature; read-out: Km (S2302)
T2 construct: Human thrombin stock solution; purchased Enzyme Research Lab
Procedure: as §1, §2
2. Human thrombin stock solution: Stored at -80° C. (working solution (2X): 1200 ng/mL or 40 nM in assay buffer, prepare prior to use).
2. S2302 (Thrombin assay) stock solution: 10 mM in dH2 O, stored at 4° C. (working solution (4X): 1200 μM in assay buffer).
Assays were performed in 96-well microtiter plates in a total volume of 200 μl. […] Concentrations of the standard inhibitor compound in the assay were from 5 μM to 0.021 μM in 1 to 3 dilution. Concentration of the test compounds in the assay typically were from 10 μM to 0.041 μM in 1 to 3 dilution. For potent test compounds, the concentrations used in the factor Xa assay were further diluted 100 fold (100 nM to 0.41 nM) or 1000 fold (10 nM to 0.041 nM). […]
as §3, §4

Row | SMILES | Km [1] | Km [2]
1 | CC[C@@H](C)[C@@H](N)C(=O)N1CCC[C@H]1C(=O)N[C@@H](CCCN=C(N)N)C(=O)Nc1ccc([N+](=O)[O-])cc1 [S2288] (H-[dI]-Pro-Arg-pNA) | 371 µM | 
2 | N=C(N)NCCC[C@H](NC(=O)[C@H](Cc1ccccc1)NC(=O)[C@H]1CCCN1)C(=O)Nc1ccc([N+](=O)[O-])cc1 [S2302] (H-[dP]-Phe-Arg-pNA) |  | 300 µM
